Consider one compound from patent US8962793B2, “ErbB interface peptidomimetics and methods of use thereof” (The Trustees of the University of Pennsylvania, priority 2001, dated 2015).

For assay [1], the target named is T1, erbB2-erbB4 receptor heteromerization in the 32D-E2/E4 cells (Homo sapiens, UniProt P04626).
T1 construct: dimerization of native full-length ErbB receptors was studied using the 32D cell lines transfected with different erbB receptors; host or cells: 32D cells (32D-E2/E4)
Nature of the assay: Chemical cross-linking and immunoblotting of heregulin-induced receptor dimerization in 32D-E2/E4 cells. It is filed as cell-based. To be noted: dose-dependent, FIG. 5B, read-out: apparent IC50 of inhibition of receptor dimerization. The procedure:
Effect of the ErbB peptides on biochemically defined dimerization of native full-length ErbB receptors was studied using the 32D cell lines transfected with different erbB receptors. 32D-E1 cells were transfected with erbB1; 32D-E2/E3 with erbB2 and erbB3; and 32D-E2/E4 with erbB2 and erbB4.
32D cell transfectants with ErbB receptors (gift from Dr. Jacalyn H. Pierce, National Cancer Institute) were grown in RPMI 1640, 10% FBS and 5% WEHI medium (GenoQuest, Interlukin-3 supplement) and respective antibiotics, i.e. 32D-E1 (gptr), 32D-E2/E3 (neor/gptr) and 32D-E2/E4 (neor/gptr) (29). The WEHI medium was withdrawn and cells were pre-incubated with ErbB peptides for 2 hours at 37° C. before adding 10 μg/ml EGF (for 32D-E1, Collaborative Biomedical Products) or 10 μg/ml HRG 1 (for 32D-E2/E3 or 32D E2/E4, R&D Systems) and further incubated at 37° C. for 24-48 hours. The cell viability was detected with propidium iodide staining followed by flow cytometry quantification. For the cross-linking analysis, approximately 2×10^6 cells were suspended in RPMI 1640 medium containing 0.1% BSA and 10 mM HEPES, and pre-incubated with ErbB peptides for 2 hours at 37° C. before adding 10 μg/ml EGF or 10 μg/ml Heregulin-β1 EGF domain and further incubated at 37° C. for 10-15 minutes. Cells were rinsed with PBS and incubated in 2 mM BS^3/PBS at 4° C. for 45 minutes. […]
In general terms: In western blotting, separated proteins are transferred to a membrane and probed.

In assay [2] the target is T2, erbB3-erbB2 heteromerization (Homo sapiens, UniProt P04626).
T2 construct: the ectodomains of erbB receptors were immobilized on the surface chip; erbB2: Dr. Che Law, Xcyte Therapeutics; erbB3: Dr. Mark A. Lemmon
Nature of the assay: SPR inhibition of HRGβ1-induced binding of ErbB3 to immobilized ErbB2. To be noted: peptide 10 μm, ErbB3 300 nm, HRGβ1 5 μM. The procedure: (§1) The effect of cysteine-knot mimetics on receptor self-associations, was examined using a Biacore assay in which the ectodomains of erbB receptors were immobilized on the surface chip and the ectodomain of erbB3 was injected at 300 nM concentrations either alone or in the presence of 5 μM hereglunin HRGβ1.
(§2) The effect of the erbB peptides on heregulin-induced receptor self-associations was studied by preinjecting them at 10 μM followed by injection of erbB3-HRGβ1 (FIG. 4; 1B, 2B, 3B).
(§3) Binding experiments were performed with the surface plasmon resonance based biosensor instrument Biacore 3000 (Biacore AB, Uppsala, Sweden), at 25° C. […] (erbB2) and Dr. Mark A. Lemmon, Department of Biochemistry and Biophysics, University of Pennsylvania School of Medicine (erbB1 and erbB3). Immobilization of the erbB receptors in the sensor surface was performed following the standard amine coupling procedure according to manufacturer's instructions. Briefly, 35 μl of a solution containing 0.2 M N-ethyl-N′-(dimethylaminopropyl) carbodiimide (EDC) and 0.05 M N-hydroxysuccinimide (NHS), were injected at a flow rate of 5 μl/min to activate carboxyl groups on the sensor chip surface. Receptors (40 ng/ml in 10 mM NaOAc buffer, pH 5.0) were flowed over the chip surface at a flow rate of 20 μl/min until the desired level bound protein was reached. Unreacted protein was washed out and unreacted activated groups were blocked by the injection of 35 μl of 1 M ethanolamine at 5 μl/min. […] A reference surface was generated simultaneously under the same conditions but without receptor injection and used as a blank to correct for instrument and buffer artifacts. Peptides were injected at variable concentrations at 20 μl/min flow rate and binding to the receptors immobilized on the chip was monitored in real time. Each sensorgram consists of an association phase (first 240 s), reflecting binding of the injected peptide to the receptor, followed by a dissociation phase (300 s), during which the running buffer is passed over the chip and the bound peptide is being washed off the receptor surface.

Assay [3] concerns the target T3, ErbB3 (Homo sapiens, UniProt P21860).
T3 construct: gift of Dr. Mark A. Lemmon, University of Pennsylvania School of Medicine
Put plainly: Surface plasmon resonance (Biacore) binding to immobilized ErbB3 extracellular domain. To be noted: immobilized extracellular domain, surface plasmon resonance; read-out: KD (μM) ErbB3. The procedure:
(§4) The designed erbB peptides were tested for binding to erbB receptors using surface plasmon resonance (Biacore) technology (described supra) using soluble erbB-1 and erbB-3. The response was plotted in real time in the form of sensorgram curves.
as §3

Assay [4] has as its target T4, erbB3-erbB1 heteromerization (Homo sapiens, UniProt P00533).
T4 construct: the ectodomains of erbB receptors were immobilized on the surface chip; erbB1 and erbB3: gift of Dr. Mark A. Lemmon
Nature of the assay: SPR inhibition of HRGβ1-induced binding of ErbB3 to immobilized ErbB1. The conditions noted are these: peptide 10 μm, ErbB3 300 nm, HRGβ1 5 μM. The procedure:
as §1, §2, §3

Assay [5] concerns the target T5, ErbB1 (Homo sapiens, UniProt P00533).
T5 construct: gift of Dr. Mark A. Lemmon, University of Pennsylvania School of Medicine
Nature of the assay: Surface plasmon resonance (Biacore) binding to immobilized ErbB1 extracellular domain. To be noted: immobilized extracellular domain, surface plasmon resonance; read-out: KD (μM) ErbB1. The procedure:
as §4, §3
On the technique in general: In SPR one partner is held on a chip, and binding of the other changes the refractive index at the surface.

Assay [6] has as its target T6, ErbB2 (Homo sapiens, UniProt P04626).
T6 construct: provided by Dr. Che Law, Xcyte Therapeutics, Seattle
Nature of the assay: Surface plasmon resonance (Biacore) binding to immobilized ErbB2 extracellular domain. To be noted: immobilized extracellular domain, surface plasmon resonance; read-out: KD (μM) ErbB2. As for the experimental part: The designed erbB peptides were tested for binding to erbB receptors using surface plasmon resonance (Biacore) technology (described supra) using soluble erbB-1 and erbB-3. The response was plotted in real time in the form of sensorgram curves. Dissociation constants (Kd) were determined as described (Park, et al. 2000, Nat. Biotechnol. 18:194-198).
A sensorgram for binding of B2-S22-APE peptide to erbB receptors immobilized on the sensor chip was performed.
as §3

In assay [7] the target is T7, erbB3-erbB3 homomerization (Homo sapiens, UniProt P21860).
T7 construct: the ectodomains of erbB receptors were immobilized on the surface chip; erbB3: gift of Dr. Mark A. Lemmon
Nature of the assay: SPR inhibition of HRGβ1-induced binding of ErbB3 to immobilized ErbB3. The conditions noted are these: peptide 10 μm, ErbB3 300 nm, HRGβ1 5 μM. The procedure:
as §1, §2, §3

Bridge positions count the residues as written; N and C are the ends. Peptide text beside a SMILES is read from it.

T6 sequence (P04626 23-652 limits assumed): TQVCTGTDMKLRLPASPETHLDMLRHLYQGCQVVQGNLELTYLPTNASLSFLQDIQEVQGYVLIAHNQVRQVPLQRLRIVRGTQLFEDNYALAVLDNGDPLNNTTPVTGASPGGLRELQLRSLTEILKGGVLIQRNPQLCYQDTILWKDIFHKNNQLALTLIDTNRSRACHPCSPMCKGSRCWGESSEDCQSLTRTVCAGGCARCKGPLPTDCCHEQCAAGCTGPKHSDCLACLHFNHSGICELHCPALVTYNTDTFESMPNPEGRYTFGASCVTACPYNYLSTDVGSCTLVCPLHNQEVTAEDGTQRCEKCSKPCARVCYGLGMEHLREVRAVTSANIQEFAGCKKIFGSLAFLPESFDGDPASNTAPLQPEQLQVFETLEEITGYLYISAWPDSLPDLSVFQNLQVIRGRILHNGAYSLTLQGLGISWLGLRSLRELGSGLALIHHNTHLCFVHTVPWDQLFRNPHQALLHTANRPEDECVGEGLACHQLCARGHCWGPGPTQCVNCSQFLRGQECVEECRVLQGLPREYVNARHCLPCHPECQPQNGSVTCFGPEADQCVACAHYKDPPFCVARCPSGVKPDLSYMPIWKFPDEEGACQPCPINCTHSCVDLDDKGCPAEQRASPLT
T2 sequence (P04626 23-652 limits assumed, one chain of several): as the sequence (P04626 23-652 limits assumed) above
T1 sequence (P04626 23-1255, one chain of several): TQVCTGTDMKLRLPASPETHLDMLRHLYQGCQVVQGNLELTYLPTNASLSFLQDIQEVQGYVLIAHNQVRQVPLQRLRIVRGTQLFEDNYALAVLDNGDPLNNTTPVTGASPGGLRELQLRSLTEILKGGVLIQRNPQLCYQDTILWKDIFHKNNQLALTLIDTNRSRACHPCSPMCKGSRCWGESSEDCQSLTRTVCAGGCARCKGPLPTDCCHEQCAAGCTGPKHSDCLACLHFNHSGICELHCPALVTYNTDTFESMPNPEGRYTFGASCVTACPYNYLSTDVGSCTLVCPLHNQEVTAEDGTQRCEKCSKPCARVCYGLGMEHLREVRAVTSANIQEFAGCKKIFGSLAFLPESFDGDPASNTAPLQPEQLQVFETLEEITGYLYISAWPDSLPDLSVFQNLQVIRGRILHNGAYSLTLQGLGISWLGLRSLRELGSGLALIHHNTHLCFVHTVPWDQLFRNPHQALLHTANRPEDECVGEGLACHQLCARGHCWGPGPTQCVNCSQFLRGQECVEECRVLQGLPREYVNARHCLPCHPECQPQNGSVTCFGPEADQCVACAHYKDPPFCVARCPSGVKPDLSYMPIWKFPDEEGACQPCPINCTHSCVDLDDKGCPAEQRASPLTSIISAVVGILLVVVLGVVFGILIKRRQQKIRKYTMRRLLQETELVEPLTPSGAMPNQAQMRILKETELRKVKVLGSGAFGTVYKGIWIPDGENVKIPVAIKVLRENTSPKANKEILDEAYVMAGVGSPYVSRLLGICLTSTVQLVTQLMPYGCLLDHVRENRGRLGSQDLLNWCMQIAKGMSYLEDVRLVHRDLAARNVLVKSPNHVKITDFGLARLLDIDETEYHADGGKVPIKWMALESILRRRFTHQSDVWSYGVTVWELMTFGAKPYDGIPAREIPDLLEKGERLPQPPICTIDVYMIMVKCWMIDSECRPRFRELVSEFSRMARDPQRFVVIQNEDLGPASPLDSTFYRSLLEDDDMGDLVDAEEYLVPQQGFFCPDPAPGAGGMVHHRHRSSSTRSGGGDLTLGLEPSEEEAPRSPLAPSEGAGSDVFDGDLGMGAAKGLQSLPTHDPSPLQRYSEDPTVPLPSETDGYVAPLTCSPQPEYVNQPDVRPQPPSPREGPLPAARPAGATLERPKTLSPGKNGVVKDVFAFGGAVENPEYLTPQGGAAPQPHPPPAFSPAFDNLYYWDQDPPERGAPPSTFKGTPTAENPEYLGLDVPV
T7 sequence (P21860 20-643 limits assumed): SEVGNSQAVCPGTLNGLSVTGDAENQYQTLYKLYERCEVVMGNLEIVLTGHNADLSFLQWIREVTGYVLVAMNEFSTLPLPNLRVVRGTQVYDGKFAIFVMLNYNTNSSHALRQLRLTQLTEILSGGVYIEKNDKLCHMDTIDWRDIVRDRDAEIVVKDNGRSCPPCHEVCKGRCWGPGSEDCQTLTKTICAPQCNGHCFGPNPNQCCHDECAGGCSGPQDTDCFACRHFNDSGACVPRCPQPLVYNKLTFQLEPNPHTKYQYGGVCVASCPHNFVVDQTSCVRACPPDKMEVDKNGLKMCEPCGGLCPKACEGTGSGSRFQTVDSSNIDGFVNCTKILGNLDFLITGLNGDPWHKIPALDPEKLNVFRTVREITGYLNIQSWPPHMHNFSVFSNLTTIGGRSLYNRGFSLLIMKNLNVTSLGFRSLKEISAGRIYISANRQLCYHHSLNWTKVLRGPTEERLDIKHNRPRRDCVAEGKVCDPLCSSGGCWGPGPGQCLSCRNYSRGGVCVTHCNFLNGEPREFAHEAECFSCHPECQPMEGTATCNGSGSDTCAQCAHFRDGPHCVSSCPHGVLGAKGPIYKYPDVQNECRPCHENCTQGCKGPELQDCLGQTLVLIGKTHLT
T3 sequence (P21860 20-643 limits assumed): as above
T5 sequence (P00533 25-645 limits assumed): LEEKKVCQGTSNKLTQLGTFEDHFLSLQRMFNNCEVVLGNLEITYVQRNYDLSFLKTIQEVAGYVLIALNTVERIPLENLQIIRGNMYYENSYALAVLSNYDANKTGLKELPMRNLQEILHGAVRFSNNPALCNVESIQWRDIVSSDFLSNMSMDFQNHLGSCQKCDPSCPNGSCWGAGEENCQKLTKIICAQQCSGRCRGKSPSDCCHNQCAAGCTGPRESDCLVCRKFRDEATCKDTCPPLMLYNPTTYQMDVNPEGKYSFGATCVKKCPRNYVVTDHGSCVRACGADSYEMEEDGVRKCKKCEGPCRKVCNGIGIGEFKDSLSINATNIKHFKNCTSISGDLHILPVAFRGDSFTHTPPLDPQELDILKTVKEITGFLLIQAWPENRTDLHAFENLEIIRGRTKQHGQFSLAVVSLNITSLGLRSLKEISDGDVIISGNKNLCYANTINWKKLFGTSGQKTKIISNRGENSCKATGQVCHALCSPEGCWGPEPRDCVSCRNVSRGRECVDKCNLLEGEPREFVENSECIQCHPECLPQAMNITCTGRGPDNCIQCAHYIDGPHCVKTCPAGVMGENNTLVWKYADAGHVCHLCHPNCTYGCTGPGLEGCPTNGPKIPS
T4 sequence (P00533 25-645 limits assumed, one chain of several): as the sequence (P00533 25-645 limits assumed) above

With `C[C@@H]1NC(=O)CNC(=O)[C@H](CCC(=O)O)NC(=O)[C@H](CCC(=O)O)NC(=O)[C@H](CC(=O)O)NC(=O)[C@@H]2CCCN2C(=O)[C@H](Cc2ccccc2)NC(=O)[C@@H](NC(=O)[C@@H](N)Cc2ccc(O)cc2)CSSC[C@@H](C(=O)N[C@@H](Cc2ccc(O)cc2)C(N)=O)NC1=O` [B2-S22-AFA, YCFPDEEGACY] (H-YCFPDEEGACY-NH2; disulfide 2-10), the IC50 (usually the midpoint of a concentration-inhibition curve) in assay [1] is 0.8 µM. For the same compound, the “Percent Inhibition ErbB2” value in assay [2] is 82.5%. For the same compound, the Kd (as a rule, the free concentration of one partner at which half of the binding sites on the other are occupied at equilibrium, for simple one-to-one binding) in assay [3] came to 0.429 µM; in assay [5], 0.407 µM; in assay [6] it was 0.302 µM. The “Percent Inhibition ErbB1” value in assay [4] is 78.4%. In assay [7], the “Percent Inhibition ErbB3” value is recorded as 61.7%.
